# Laboratory results taken from US20220112178A1, “Small Molecule Modulators of RAS GTPase” (Tosk, Inc., priority 2020, published 2022).
# Tested on: SW620 cells
# Assay: Cell proliferation / cytotoxicity assay (CellTiter-Glo) in SW620 cells
# Type: cell-based
# Settings: Homo sapiens, SW-620; SW620 cells (ATCC CCL-227), 72 hours, CellTiter-Glo 2.0 luminescence
# Description: Compounds are assayed for inhibition of cell proliferation and killing cancer cells. Cytotoxicity assays are conducted according to the following general procedure. SW620 cells (ATCC CCL-227) are maintained in DMEM Low Glucose (Corning 10-014-CV) media supplemented with 10% fetal bovine serum and 1% PenStrep and grown at 37° C. in 5% CO2. Cells are plated into 96 well flat bottom plates (2 million/plate, ˜20,000/well, 200 μL media/well). The cells are allowed to settle and adhere to the plate bottom overnight. Compounds are diluted in media from a 10 mM stock solution starting at 50 μM, using 2-fold dilutions, in a column in a 96-well plate. Media is removed from the plate containing cells and replaced with media containing diluted compounds, Plates are incubated 72 hours at 37° C. in 5% CO2. Plates are allowed to come to room temperature and 100 μL CellTiter-Glo 2.0 reagent (Promega, G924C) is added at room temperature. Plates are shaken for 2 minutes, then allowed to stand for 15 minutes. Luminescence is read with FLx800 (BioTek Instruments). Data is plotted with GraphPad Prizm 8.0.
row,Structure (SMILES),IC50
1,Cc1nc(N[C@@H]2CC[C@H](NC(=O)OC(C)(C)C)C2)nc2ccc(-c3cccc4c3OCCO4)cc12 [Compound 1],5 to 10 µM
2,Cc1nc(N[C@@H]2CC[C@H](NC(=O)c3ccc(Cl)cc3)C2)nc2ccc(-c3cccc4c3OCCO4)cc12 [Compound 2],5 to 10 µM
3,Cc1nc(N[C@@H]2CC[C@H](N3Cc4ccccc4CC3=O)C2)nc2ccc(-c3cccc4c3OCCO4)cc12 [Compound 3],5 to 10 µM
4,Cc1nc(N[C@@H]2CC[C@H](NC(=O)OC(C)(C)C)C2)nc2ccc(-c3ccnc4c3OCCO4)cc12 [Compound 4],< 5 µM
5,Cc1nc(N[C@@H]2CC[C@H](NC(=O)c3ccc(Cl)cc3)C2)nc2ccc(-c3cccc4c3CCCC4)cc12 [Compound 5],< 5 µM
6,Cc1nc(N[C@@H]2CC[C@H](NC(=O)c3ccccc3Cl)C2)nc2ccc(-c3ccnc4c3OCCO4)cc12 [Compound 6],< 5 µM
7,Cc1nc(N[C@@H]2CC[C@H](N3Cc4ccccc4CC3=O)C2)nc2ccc(-c3ccnc4c3OCCO4)cc12 [Compound 7],5 to 10 µM
8,Cc1nc(N[C@@H]2CC[C@H](NC(=O)c3ccc(Cl)cc3)C2)nc2ccc(-c3ccnc4c3OCCO4)cc12 [Compound 8],< 5 µM
9,Cc1nccc(-c2ccc3nc(N[C@@H]4CC[C@H](NC(=O)c5ccc(Cl)cc5)C4)nc(C)c3c2)c1Cl [Compound 9],< 5 µM
10,Cc1nc(N[C@@H]2CC[C@H](N)C2)nc2ccc(-c3ccnc4c3OCCO4)cc12 [Compound 10],5 to 10 µM
11,Cc1nc(N[C@@H]2CC[C@@H](NC(=O)OC(C)(C)C)C2)nc2ccc(-c3ccnc4c3OCCO4)cc12 [Compound 11],< 5 µM
12,Cc1ccc2ccc(F)c(-c3ccc4nc(N[C@@H]5CC[C@@H](NC(=O)OC(C)(C)C)C5)nc(C)c4c3)c2n1 [Compound 12],5 to 10 µM
13,Cc1nn(C)c(C(=O)N[C@H]2CC[C@@H](Nc3nc(C)c4cc(-c5ccnc6c5OCCO6)ccc4n3)C2)c1Cl [Compound 13],< 5 µM
14,Cc1ncccc1C(=O)N[C@H]1CC[C@@H](Nc2nc(C)c3cc(-c4ccnc5c4OCCO5)ccc3n2)C1 [Compound 14],< 5 µM
15,Cc1ccc2ccc(F)c(-c3ccc4nc(N[C@@H]5CC[C@H](NC(=O)OC(C)(C)C)C5)nc(C)c4c3)c2n1 [Compound 15],5 to 10 µM
16,Cc1nccc(-c2ccc3nc(N[C@@H]4CC[C@H](NC(=O)OC(C)(C)C)C4)nc(C)c3c2)c1Cl [Compound 16],5 to 10 µM
17,Cc1nc(N[C@H]2CC[C@@H](NC(=O)OC(C)(C)C)C2)nc2ccc(-c3ccnc4c3OCCO4)cc12 [Compound 18],< 5 µM
18,COc1nccc(-c2ccc3nc(N[C@@H]4CC[C@H](NC(=O)OC(C)(C)C)C4)nc(C)c3c2)c1Cl [Compound 21],5 to 10 µM
19,COc1c(Cl)cccc1-c1ccc2nc(N[C@@H]3CC[C@H](NC(=O)OC(C)(C)C)C3)nc(C)c2c1 [Compound 22],5 to 10 µM
20,Cc1nc(N[C@@H]2CC[C@H](N3CCNC3=O)C2)nc2ccc(-c3ccnc4c3OCCO4)cc12 [Compound 26],5 to 10 µM
21,Cc1nc(N[C@@H]2CC[C@H](NC(=O)C(C)(C)C)C2)nc2ccc(-c3ccnc4c3OCCO4)cc12 [Compound 27],< 5 µM

row,Structure (SMILES),IC50
1,Cc1ccc2ccc(F)c(-c3ccc4nc(N[C@H]5CC[C@@H](NC(=O)OC(C)(C)C)C5)nc(C)c4c3)c2n1 [Compound 28],5 to 10 µM
2,Cc1nc(N[C@@H]2CC[C@H](NC(=O)Cn3cccn3)C2)nc2ccc(-c3cccc4c3CCCC4)cc12 [Compound 29],< 5 µM
3,COc1ncccc1-c1ccc2nc(N[C@@H]3CC[C@H](NC(=O)OC(C)(C)C)C3)nc(C)c2c1 [Compound 31],5 to 10 µM
4,Cc1nc(N[C@@H]2CC[C@H](NS(=O)(=O)c3ccc(C#N)cc3)C2)nc2ccc(-c3ccnc4c3OCCO4)cc12 [Compound 32],< 5 µM
5,Cc1nc(N[C@@H]2CC[C@H](NC(=O)O[C@H]3CCN(C)C3)C2)nc2ccc(-c3ccnc4c3OCCO4)cc12 [Compound 33],< 5 µM
6,Cc1nc(N[C@@H]2CC[C@H](NC(=O)OCc3nccn3C)C2)nc2ccc(-c3ccnc4c3OCCO4)cc12 [Compound 34],< 5 µM
7,Cc1nc(N[C@@H]2CC[C@H](NC(=O)OCc3ncco3)C2)nc2ccc(-c3ccnc4c3OCCO4)cc12 [Compound 35],< 5 µM
8,Cc1nc(N[C@@H]2CC[C@H](NC(=O)OCc3ccon3)C2)nc2ccc(-c3ccnc4c3OCCO4)cc12 [Compound 36],< 5 µM
9,Cc1nc(N[C@@H]2CC[C@H](NC(=O)OC[C@H]3CCCN3C)C2)nc2ccc(-c3ccnc4c3OCCO4)cc12 [Compound 37],< 5 µM
10,Cc1nc(N[C@@H]2CC[C@H](NC(=O)OC[C@@H]3CCCN3C)C2)nc2ccc(-c3ccnc4c3OCCO4)cc12 [Compound 38],< 5 µM
11,Cc1nc(N[C@@H]2CC[C@H](NC(=O)O[C@@H]3CCN(C)C3)C2)nc2ccc(-c3ccnc4c3OCCO4)cc12 [Compound 39],< 5 µM
12,Cc1nc(N[C@@H]2CC[C@H](NC(=O)OCc3ccno3)C2)nc2ccc(-c3ccnc4c3OCCO4)cc12 [Compound 40],< 5 µM
13,Cc1cc(COC(=O)N[C@H]2CC[C@@H](Nc3nc(C)c4cc(-c5ccnc6c5OCCO6)ccc4n3)C2)on1 [Compound 41],< 5 µM
14,C=CC(=O)N[C@H]1CC[C@@H](Nc2nc(C)c3cc(-c4ccnc5c4OCCO5)ccc3n2)C1 [Compound 42],< 5 µM
15,Cc1nc(N[C@@H]2CC[C@H](NC(=O)OC(C)(C)C)C2)nc2ccc(-c3ccnc4c3OCCO4)c(F)c12 [Compound 43],< 5 µM
16,Cc1nc(N[C@@H]2CC[C@H](NC(=O)OC(C)(C)C)C2)nc2ccc(-c3c(Cl)cnc4c3OCCO4)cc12 [Compound 44],< 5 µM
17,Cc1nc(N[C@@H]2CC[C@H](NC(=O)OC(C)(C)C)C2)nc2ccc(-c3cc[n+]([O-])c4c3OCCO4)cc12 [Compound 45],< 5 µM
18,Cc1nc(N[C@@H]2CC[C@H](NC(=O)OC(C)(C)C)C2)[n+]([O-])c2ccc(-c3ccnc4c3OCCO4)cc12 [Compound 46],< 5 µM
19,Cc1nc(N[C@@H]2CC[C@H](NC(=O)c3nnn(C(C)(C)C)n3)C2)nc2ccc(-c3ccnc4c3OCCO4)cc12 [Compound 47],< 5 µM
20,Cc1nc(N[C@@H]2CC[C@H](NC(=O)c3nnn(C(C)(C)C)n3)C2)nc2ccc(-c3ccnc4c3OCCO4)c(F)c12 [Compound 48],< 5 µM

# Same assay, conditions: Homo sapiens, SW-620; SW620 cells (ATCC CCL-227), 72 hours, CellTiter-Glo 2.0 luminescence; Table 2
row,Structure (SMILES),IC50
1,Cc1nc(N[C@H]2CCN(Cc3ccc(Cl)cc3)C2)nc2ccc(-c3cccc4c3CCCC4)cc12 [Compound 91],< 5 µM
2,Cc1nc(N[C@@H]2CCN(Cc3ccc(Cl)cc3)C2)nc2ccc(-c3cccc4c3CCCC4)cc12 [Compound 92],5 to 10 µM

# Same assay, conditions: SW620 cells (ATCC CCL-227), 72 hours, CellTiter-Glo 2.0 luminescence
row,Structure (SMILES),IC50
1,Cc1nc(N[C@@H]2CC[C@H](NC(=O)OC(C)(C)C)C2)nc2ccc(-c3ccnc4c3OCCO4)cc12 [Compound 17],< 5 µM
2,Cc1nc(N[C@@H]2CC[C@H](NC(=O)OC(C)(C)C)C2)nc2ccc(-c3ccnc4c3OCCO4)cc12 [Compound 19],< 5 µM
3,Cc1ccc2ccc(F)c(-c3ccc4nc(N[C@@H]5CC[C@H](NC(=O)OC(C)(C)C)C5)nc(C)c4c3)c2n1 [Compound 30],5 to 10 µM
